Assay results published in US5864033A, “Adenosine kinase inhibitors” (priority 1995, dated 1999).
Several values for one entry are separate records, joined by “and”; a condition that tells them apart may be missing. Equal values may be shown once. Entries after “also recorded” stand apart in the source; their conditions may differ.

Key:
[1] = test system: neutrophil adherence to endothelial cells; experiment: Inhibition of neutrophil adherence to endothelial cells; format: cell-based, human; conditions: for inhibition of neutrophil adhesion to endothelial cells: fMLP-stimulated human neutrophils, 2 hours, 37° C.; for reversal of inhibition of neutrophil adhesion by adenosine deaminase: with adenosine deaminase 0.125 U/ml
Experimental: The ability of an adenosine kinase inhibitor to affect neutrophil adherence to fibroblasts and endothelial cells was evaluated in a cell culture model.
These incubations were carried out in the presence of fMLP-stimulated human neutrophils isolated from whole blood (1.25×10^6 /ml) with or without adenosine deaminase (0.125 U/ml). At the end of the incubation, the medium was removed and the monolayers of fibroblasts or endothelial cells and adherent neutrophils were fixed by addition of formaldehyde (3.7%) and, after washing to remove non-adherent neutrophils, adherent neutrophils were stained with Weigart's hematoxylin and counted under a light microscope.

rat cardiomyocytes = conditions: cited from earlier work
[2] = test system: pentylenetetrazol (PTZ)-induced seizures in mice; experiment: PTZ-induced seizures; format: in vivo, male Swiss Webster mice; conditions: for attenuation of chemical and electroshock induced seizures: experimental animal models; for oral anticonvulsant activity: 45 minutes prior to PTZ; for Percent Seizure: 45 min prior to PTZ, N = 7; for Seizure Score: mean ± standard deviation
mice = conditions: cited from earlier work
isolated rat hearts = conditions: normoxic, hypoxic, anoxic or ischemic conditions; alone; cited from earlier work
dog hearts = conditions: cited from earlier work
cardiac adenosine kinase = conditions: systemic or, in some cases, oral administration
[3] = test system: isolated guinea pig hearts; conditions: absence of ADA inhibition; cited from earlier work
[4] = test system: isolated guinea pig hearts; experiment: Improved functional recovery in isolated hearts (low flow ischemia/reperfusion); conditions: for Preischemic Flow: Conc. 0.3 (M) as printed; for Functional Recovery: Conc. 0.3 as printed, p < 0.05 vs. Control
Experimental: The ability of a number of adenosine kinase inhibitors to improve the recovery of post-ischemic function was examined in an isolated guinea pig heart model.
Isolated guinea pig hearts were cannulated via the ascending aorta and-attached to a perfusion apparatus according to the method of Langendorff. The hearts were perfused at a constant pressure of 60 cm of H2 O with a modified Krebs-Hanseleit buffer (pH 7.4) at 37° C. Left ventricular developed pressures (LVDP) were monitored continuously using a latex balloon attached to a pressure transducer. Coronary flows were measured gravimetrically by timed collection of pulmonary effluent. Following equilibration of the hearts for a period of 30 minutes, the hearts were subjected to 45 minutes of low flow ischemia, by reducing the perfusion pressure to 10 cm of H2 O, and then reperfused for 30 minutes by restoring the pressure to its original level (60 cm of H2 O). The adenosine kinase inhibitors BP-1-238, GP-1-515 and GP1-547 were added to the perfusion buffer at the final concentrations specified.

anesthetized male dogs = experiment: Preclinical model of stable angina (repeated pacing-induced ischemia); format: in vivo, dog; conditions: intravenous infusion
Experimental: GP-1-515, was evaluated for its ability to prevent cumulative cardiac dysfunction associated with repeated episodes of pacing-induced ischemia.
Anesthetized male dogs were instrumented to measure regional myocardial wall thickening during right atrial pacing (Young & Mullane, Am. J. Physio., 1991, 261:1570-1577). Animals were subjected to six repeated episodes of pacing. A continuous IV infusion of 1 μg/kg/min of GP-1-515 or saline (control) was administered post pace #1.

[5] = test system: canine coronary thrombosis / cyclic flow reductions; experiment: Canine model of platelet-induced coronary thrombosis (Folts; cyclic flow reductions); format: in vivo, dog
Experimental: GP-1-515 was tested in a canine model of platelet-induced coronary thrombosis (Folts, J., Circulation, 1991, 83[Suppl. IV]:IV-3-IV-14). In this model, platelets cyclically aggregate and embolize causing cyclic flow reductions (CFRs) that are quantitated by the frequency and the change in coronary blood flow from low point to peak with each cycle.

[6] = test system: isolated guinea pig ileum longitudinal muscle; experiment: Inhibition of contraction in isolated ileum; conditions: for inhibition of contraction in the isolated ileum: electrically stimulated; for reversal of inhibition of contraction: with 8-sulfophenyltheophylline (8SPT) or adenosine deaminase (ADA)
Experimental: The ability of adenosine kinase inhibition to affect stimulated contraction of muscle strips from the isolated ileum has been investigated.
Parallel platinum electrodes were used to deliver electrical current at 1 minute intervals at a voltage adequate to induce contraction of 90% of maximal. The adenosine kinase inhibitors, GP-1-515 or GP-1-547 were added to the tissue baths at different concentrations, with or without either the adenosine receptor antagonist, 8-sulphophenyltheophylline (8SPT) or adenosine deaminase (ADA), and the effects on contraction monitored.

With `CNc1ncnc2c1ncn2[C@@H]1O[C@H](CN)[C@@H](O)[C@H]1O` [GP-1-272] the “inhibition of neutrophil adhesion to endothelial cells” value [1] was “inhibit neutrophil adhesion to endothelial cells; also recorded: dose-dependent inhibition” and the “reversal of inhibition of neutrophil adhesion by adenosine deaminase” value [1] was “reversed by adenosine deaminase treatment; also recorded: reversal of these inhibitions”.
In the case of `OC[C@H]1O[C@@H](n2cnc3c2N=CNC[C@H]3O)C[C@@H]1O` [2'-deoxycoformycin], the “effect on adenosine release” value (rat cardiomyocytes; inhibition of adenosine deaminase alone) is listed as “no effect on adenosine release”.
For `C[C@H]1O[C@@H](n2cc(I)c3c(N)ncnc32)[C@H](O)[C@@H]1O` [GP-1-456, 5'-deoxy-5-iodotubercidin, reference compound], the “inhibition of neutrophil adhesion to endothelial cells” value [1] was “inhibit neutrophil adhesion to endothelial cells; also recorded: dose-dependent inhibition”, the “reversal of inhibition of neutrophil adhesion by adenosine deaminase” value [1] was “reversed by adenosine deaminase treatment; also recorded: reversal of these inhibitions” and the “inhibition of PTZ induced seizures” value ([2]; IP 1, 5 and 10 mg/kg) was “dose-dependent inhibition”. The “reversal of inhibition of PTZ induced seizures” value ([2]; IP […] with theophylline 34 mg/kg or 8-sulfophenyltheophylline 70 mg/kg) was “reversal of this inhibition by the central adenosine receptor antagonist theophylline but not the peripheral antagonist 8-sulfophenyltheophylline”, the “attenuation of chemical and electroshock induced seizures” value [2] was “potent effects” and the oral anticonvulsant activity [2] was “exhibit oral anticonvulsant activity”. The “flaccidity and locomotor activity” value (mice) was “pronounced general flaccidity and much-reduced spontaneous locomotor activity” and the hypothermia (mice) was “cause hypothermia”.
For `Nc1ncnc2c1c(I)cn2[C@@H]1O[C@H](CO)[C@@H](O)[C@H]1O` [5-iodotubercidin], the perfusate adenosine concentration (isolated rat hearts) is given as “no increase in perfusate adenosine concentration”, the “effect in ischemia and reperfusion” value (dog hearts) is given as “inconsistent effects” and the “flaccidity and locomotor activity” value (mice) is given as “pronounced general flaccidity and much-reduced spontaneous locomotor activity”. For the same compound, the hypothermia (mice) was “cause hypothermia”.
For `NC[C@H]1O[C@@H](n2cnc3c(N)ncnc32)[C@H](O)[C@@H]1O` [GP-1-238, 5'-amino-5'-deoxyadenosine], the “inhibition of cardiac adenosine kinase in vivo” value (cardiac adenosine kinase) is listed as “completely inhibited adenosine kinase in vivo”, the “increase in adenosine release” value (rat cardiomyocytes; together with ADA inhibition) is listed as 6 fold and the “increase of adenosine release without ADA inhibition” value [3] is listed as “not apparent in the absence of ADA inhibition”.
In the case of `NC[C@H]1O[C@@H](n2nc(Br)c3c(N)ncnc32)[C@H](O)[C@@H]1O` [GP-1-515], the “Preischemic Flow” value [4] is reported as 6.5 ± 0.3 mL/min/g, the “Functional Recovery” value [4] is reported as 79.0 ± 3.4 % preischemic LVDP and the “decline in function / wall thickening with pacing-induced ischemia” value (anesthetized male dogs) is reported as “attenuates the decline in wall thickening; also recorded: attenuated the decline in function”. The “animals in which CFRs were abolished” value ([5]; Folts model, dogs) was 3 of 8 and 3 out of 8, the “frequency and change in flow of CFRs where not abolished” value ([5]; dog, in vivo) was “reduced both the frequency and the change in flow” and the “inhibition of contraction in the isolated ileum” value [6] was “Inhibition of contraction; also recorded: attenuate contraction; also recorded: dose-dependent inhibition”. For the same compound, the “reversal of inhibition of contraction” value [6] was “reversal by both 8SPT and ADA; also recorded: reversal of these inhibitions”.
For `C[C@H]1O[C@@H](n2nc(I)c3cncnc32)[C@H](O)[C@@H]1O` [GP-1-560, 3-iodo-1-(5'-deoxy-B-D-ribofuranosyl)pyrazolo[3,4-d]pyrimidine], the “attenuation of chemical and electroshock induced seizures” value [2] was “potent effects”, the “Latency To First Seizure” value ([2]; oral 30 mg/kg) was 4.5 min and the “Percent Seizure” value ([2]; oral 30 mg/kg) was 71%. For the same compound, the “Seizure Score” value ([2]; oral 30 mg/kg) was 0.71 ± 0.5, the “Percent Seizure” value ([2]; oral 50 mg/kg) was 43% and the “Seizure Score” value ([2]; oral 50 mg/kg) was 1.0 ± 0.9. For the same compound, the “Latency To First Seizure” value ([2]; oral 50 mg/kg, p < 0.05 vs. Control) was 7.0 min and the oral anticonvulsant activity [2] was “exhibit oral anticonvulsant activity”.
For `NC[C@H]1O[C@@H](n2nc(I)c3c(N)ncnc32)[C@H](O)[C@@H]1O` [GP-1-547], the “Preischemic Flow” value [4] was 6.2 ± 0.3 mL/min/g, the “Functional Recovery” value [4] was 79.0 ± 3.1 % preischemic LVDP and the “inhibition of contraction in the isolated ileum” value [6] was “Inhibition of contraction; also recorded: attenuate contraction; also recorded: dose-dependent inhibition”. For the same compound, the “reversal of inhibition of contraction” value [6] was “reversal by both 8SPT and ADA; also recorded: reversal of these inhibitions”.
